In assay [1] the target is T1, CnHsp90 (heat shock protein 90) (Cryptococcus neoformans, UniProt J9VVA4).
T1 construct: gene CNAG_06150; recombinant CnHsp90 6x-His tag fusion protein (2157 bp amplified product in pRSET-A)
The assay can be described thus: intrinsic tryptophan fluorescence quenching; also inhibits ATPase activity of the purified protein (IC50 […] at […]°C, […] at […]°C). Format: binding.

Assay [2] addresses T1, CnHsp90 (heat shock protein 90). As to the kind of experiment: intrinsic tryptophan fluorescence quenching; also hydrolysis of γ-32P-ATP (Km […] at […]°C, […] at […]°C). It counts as binding.

The structures appear in SMILES notation.

T1 sequence (J9VVA4 entry or part of it): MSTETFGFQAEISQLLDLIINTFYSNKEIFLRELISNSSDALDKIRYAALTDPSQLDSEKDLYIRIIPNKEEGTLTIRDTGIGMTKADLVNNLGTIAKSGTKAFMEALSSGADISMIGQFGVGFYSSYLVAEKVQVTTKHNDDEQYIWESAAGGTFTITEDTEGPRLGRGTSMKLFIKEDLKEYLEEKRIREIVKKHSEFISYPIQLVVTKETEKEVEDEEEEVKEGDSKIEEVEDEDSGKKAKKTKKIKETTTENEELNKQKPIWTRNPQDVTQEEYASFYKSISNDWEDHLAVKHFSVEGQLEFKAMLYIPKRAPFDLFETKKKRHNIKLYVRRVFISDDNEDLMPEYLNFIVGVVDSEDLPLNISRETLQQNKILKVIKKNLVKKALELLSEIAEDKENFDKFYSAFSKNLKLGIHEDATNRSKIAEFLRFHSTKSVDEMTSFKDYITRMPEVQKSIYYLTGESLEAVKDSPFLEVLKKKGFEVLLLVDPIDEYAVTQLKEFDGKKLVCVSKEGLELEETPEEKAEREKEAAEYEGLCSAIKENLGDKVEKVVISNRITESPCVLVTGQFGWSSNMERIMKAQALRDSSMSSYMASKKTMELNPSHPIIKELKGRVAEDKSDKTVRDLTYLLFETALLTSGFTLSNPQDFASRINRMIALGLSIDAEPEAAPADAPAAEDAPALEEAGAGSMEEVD

As for `C=CCNC1=C2C[C@@H](C)C[C@H](OC)[C@H](O)[C@@H](C)/C=C(\C)[C@H](OC(N)=O)[C@@H](OC)/C=C\C=C(/C)C(=O)NC(=CC1=O)C2=O` [17-AAG], binding in assay [1] was characterised by a dissociation constant (Kd) of 12.9 µM.

`Nc1ncnc2c1ncn2[C@@H]1O[C@H](COP(=O)(O)OP(=O)(O)OP(=O)(O)O)[C@@H](O)[C@H]1O` [ATP] yielded an equilibrium dissociation constant (Kd) in assay [2] of 497 µM.

For the origin of these results see paper PMC5559104, “Heat shock protein 90 localizes to the surface and augments virulence factors of Cryptococcus neoformans” (PLoS Neglected Tropical Diseases, 2017).
